Experimental data taken from publication PMC3637054, “Comparison of activity indexes for recognizing enzyme mutants of higher activity with uricase as model” (Chemistry Central Journal, 2013).

System: T1, uricase of Asahi-Kasei
T1 construct: gene urate oxidase; commercial diagnostic enzyme of Asahi-Kasei
Experiment: UV absorbance at […] nm, initial rates, Lineweaver-Burk
Assay type: biochemical
Conditions: borate buffer, 25 °C

O=c1[nH]c(=O)c2[nH]c(=O)[nH]c2[nH]1 [uric acid]
Km: ~30 µM
